Test results from patent publication US8993585B2, “Cyclic amine substituted pyrimidinediamines as PKC inhibitors” (Rigel Pharmaceuticals, Inc., priority 2007, dated 2015).

Tests used:
[1] = target: T1, PKC epsilon (Homo sapiens, UniProt Q02156); assay: PKC assay, fluorescence polarization (Example 2), PKC epsilon; assay type: biochemical; conditions: 5 μM ATP
T1 construct: purchased Upstate Biotechnologies, Temecula, CA 14-518
T1 sequence (Q02156 1-737): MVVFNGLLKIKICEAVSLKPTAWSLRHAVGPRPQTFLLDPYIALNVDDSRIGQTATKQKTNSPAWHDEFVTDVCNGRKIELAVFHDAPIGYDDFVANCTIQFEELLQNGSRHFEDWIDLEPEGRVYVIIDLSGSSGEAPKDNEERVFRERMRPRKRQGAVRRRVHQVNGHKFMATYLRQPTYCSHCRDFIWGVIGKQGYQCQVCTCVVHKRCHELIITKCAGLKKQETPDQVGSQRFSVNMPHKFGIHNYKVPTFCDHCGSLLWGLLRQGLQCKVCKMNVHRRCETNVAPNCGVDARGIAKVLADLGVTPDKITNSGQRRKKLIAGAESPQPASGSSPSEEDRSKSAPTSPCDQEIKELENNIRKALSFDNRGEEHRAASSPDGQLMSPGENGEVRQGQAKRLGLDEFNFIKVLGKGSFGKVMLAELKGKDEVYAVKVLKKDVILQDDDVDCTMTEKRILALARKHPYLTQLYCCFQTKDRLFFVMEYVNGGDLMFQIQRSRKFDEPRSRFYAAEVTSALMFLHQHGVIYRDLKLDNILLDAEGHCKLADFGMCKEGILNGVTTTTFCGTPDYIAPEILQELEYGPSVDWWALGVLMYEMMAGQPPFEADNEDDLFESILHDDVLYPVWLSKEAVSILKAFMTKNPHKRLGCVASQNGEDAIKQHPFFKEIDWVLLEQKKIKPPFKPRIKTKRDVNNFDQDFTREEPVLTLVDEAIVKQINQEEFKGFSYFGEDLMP
Protocol: (§1) The inhibition of PKC activity was measured by monitoring the production of phosphorylated peptide by fluorescence polarization at different concentrations of the inhibitor. Reactions were carried out in 96-well plate format with a total volume of 20 μL containing 20 mM HEPES, pH 7.4, 5 mM MgCl2, 0.2 mM CaCl2, 1 mM DTT, 0.02% Brij-35, 0.1 mg/mL phosphatidylserine, 0.02 mg/mL dioleoyl-sn-glycerol and 5 μM each of ATP and the peptide substrate. Compounds were first diluted serially in DMSO and then transferred to a solution containing the above concentrations of HEPES, MgCl2, CaCl2, DTT, and Brij-35 to yield 5× compound solutions in 2% DMSO, which was then added to the reaction solution. Reactions were initiated by the addition of PKC at a typical concentration as described in Table VI, and then allowed to incubate at room temperature for 20 min. At the end of this time, a combination of quench (EDTA) and detection (peptide tracer and antibody) reagents was added using the protocol of Invitrogen P2748.

[2] = target: T2, PKC theta (Homo sapiens, UniProt Q04759); assay: PKC assay, fluorescence polarization (Example 2), PKC theta; assay type: biochemical; conditions: 5 μM ATP
T2 construct: purchased Upstate Biotechnologies, Temecula, CA 14-444
Protocol: as §1

[3] = system: Human primary T cells; assay: IL-2 ELISA, Human Primary T Cell, Anti-CD3+CD28+ (Example 3); assay type: cell-based; conditions: Homo sapiens, T-cell, 24 h, anti-CD3+CD28 stimulation
Outline: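 IL-2 was read by ELISA after stimulation on wells pre-coated with 1 ug/ml αCD3 and 5 μg/ml αCD28. Before this, 100,000 human primary T cells per well spent 1 h at 37 °C with test compound in Yssel's medium. The counter-screen replaced antibody stimulation with PMA (0.5 ng/ml final) and ionomycin (0.1 uM final).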

T2 sequence (Q04759 whole entry): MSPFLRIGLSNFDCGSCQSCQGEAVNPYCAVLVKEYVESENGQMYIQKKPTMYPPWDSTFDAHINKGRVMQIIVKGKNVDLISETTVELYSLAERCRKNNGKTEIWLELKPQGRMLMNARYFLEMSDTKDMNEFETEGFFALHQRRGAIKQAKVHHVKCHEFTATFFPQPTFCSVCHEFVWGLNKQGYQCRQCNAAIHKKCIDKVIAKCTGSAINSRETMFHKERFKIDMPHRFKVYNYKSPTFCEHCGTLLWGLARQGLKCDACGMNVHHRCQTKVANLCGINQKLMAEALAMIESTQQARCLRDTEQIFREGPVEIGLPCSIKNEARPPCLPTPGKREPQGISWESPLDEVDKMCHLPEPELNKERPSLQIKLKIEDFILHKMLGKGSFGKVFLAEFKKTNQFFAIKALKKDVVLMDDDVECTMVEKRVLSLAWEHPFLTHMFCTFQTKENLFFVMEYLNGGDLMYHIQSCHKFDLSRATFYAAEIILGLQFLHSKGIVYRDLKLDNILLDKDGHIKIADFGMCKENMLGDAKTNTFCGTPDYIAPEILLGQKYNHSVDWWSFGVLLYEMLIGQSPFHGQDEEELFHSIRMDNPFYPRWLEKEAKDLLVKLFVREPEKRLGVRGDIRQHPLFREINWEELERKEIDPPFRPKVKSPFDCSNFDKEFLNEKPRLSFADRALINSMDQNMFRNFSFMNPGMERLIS

IC50 [1] [µM]	IC50 [2] [µM]	IC50 [3] [µM]	Structure (SMILES)
0.179	0.0018	0.103	CCN1C(=O)C(C)(C)Oc2cc(Nc3ncc(C#N)c(NC4CC(C)(C)N(C)C(C)(C)C4)n3)ccc21 [II-45]
0.0579	0.00243	0.09	CN1C(=O)C(F)(F)Oc2cc(Nc3ncc(F)c(NC4CC(C)(C)N(C)C(C)(C)C4)n3)ccc21 [II-8]
0.008	0.0013	0.07	Cc1ccc(Nc2ncc(F)c(NC3CC(C)(C)NC(C)(C)C3)n2)cc1-n1cnnn1 [Compound I-455]
0.0669	0.0199	0.131	CCCN1CCN(c2ccc(Nc3ncc(F)c(NC4CC(C)(C)N(C)C(C)(C)C4)n3)cc2C(F)(F)F)CC1 [Compound I-247]
0.0419	0.00111	0.185	CN1C(C)(C)CC(Nc2nc(Nc3ccc(N4CCCC4)c(C#N)c3)ncc2F)CC1(C)C [Compound I-200]
0.311	0.00256	0.292	CN1C(C)(C)CC(Nc2nc(Nc3ccc(Cl)c(C#N)c3)ncc2Cl)CC1(C)C [Compound I-165]
0.05	0.0008	0.23	Cc1ccc(Nc2ncc(C#N)c(NC3CC(C)(C)NC(C)(C)C3)n2)cc1-n1cnnn1 [Compound I-461]
0.131	0.00551	0.0946	CN1CCN(c2ccc(Nc3ncc(C#N)c(NC4CC(C)(C)N(C)C(C)(C)C4)n3)cc2Cl)CC1 [Compound I-101]
0.165	0.0102	0.25	COc1cc(Nc2ncc(Br)c(NC3CC(C)(C)N(C)C(C)(C)C3)n2)cc(OC)c1 [Compound I-422]
0.935	0.0004	0.26	COc1ccc(Nc2ncc(C#N)c(NC3CC(C)(C)N(C)C(C)(C)C3)n2)cc1-n1c(C)ccc1C [Compound I-376]
0.0125	0.00182	0.0649	CN1CCN(c2ccc(Nc3ncc(F)c(NC4CC(C)(C)N(C)C(C)(C)C4)n3)cc2C#N)CC1 [Compound I-132]
0.06	0.0004	0.03	CCOc1ccc(Nc2ncc(C#N)c(NC3CC(C)(C)N(C)C(C)(C)C3)n2)cc1-n1nnnc1CC [Compound I-460]
0.202	0.0005	0.08	CCN1C(=O)C(C)(C)Oc2cc(Nc3ncc(Br)c(NC4CC(C)(C)N(C)C(C)(C)C4)n3)ccc21 [II-128]
0.119	0.0317	0.184	CN1C(C)(C)CC(Nc2nc(Nc3cccc(OC(F)(F)F)c3)ncc2F)CC1(C)C [Compound I-223]
0.0187	0.0607	0.295	Cc1cc(Nc2ncc(F)c(NC3CC(C)(C)N(C)C(C)(C)C3)n2)ccc1-c1ccoc1 [Compound I-122]
0.0134	0.00275	0.11	CCN1CCN(c2ccc(Nc3ncc(F)c(NC4CC(C)(C)N(C)C(C)(C)C4)n3)cc2Cl)CC1 [Compound I-248]
0.115	0.0034	0.28	CSc1nnnn1-c1cccc(Nc2ncc(C#N)c(NC3CC(C)(C)NC(C)(C)C3)n2)c1 [Compound I-465]
0.197	0.00387	0.227	CN1C(C)(C)CC(Nc2nc(Nc3ccc(-n4cccc4)c(C#N)c3)ncc2Cl)CC1(C)C [Compound I-167]
2.69	0.0281	0.37	CCN1C(=O)C(C)(C)Oc2cc(Nc3ncc(C)c(NC4CC(C)(C)N(C)C(C)(C)C4)n3)ccc21 [II-145]
0.0407	0.00654	0.205	CN1C(C)(C)CC(Nc2nc(Nc3ccc(OC(F)F)c(OC(F)F)c3)ncc2F)CC1(C)C [Compound I-344]
0.0103	0.0182	0.237	CN1C(C)(C)CC(Nc2nc(Nc3ccc(-c4cccnc4)c(F)c3)ncc2F)CC1(C)C [Compound I-118]
0.0429	0.0035	0.31	CN1C(C)(C)CC(Nc2nc(Nc3cc(OCC(F)(F)F)cc(OCC(F)(F)F)c3)ncc2F)CC1(C)C [Compound I-378]

IC50 [1] [µM]	IC50 [2] [µM]	IC50 [3] [µM]	Structure (SMILES)
0.941	0.698		CN1C(C)(C)CC(Nc2nc(Nc3cccc(-c4nn[nH]n4)c3)ncc2F)CC1(C)C [Compound I-470]
0.982			CC1(C)CC(Nc2nc(Nc3cccc(-c4nn[nH]n4)c3)ncc2F)CC(C)(C)N1 [Compound I-471]
	0.254	1.14	CN1CCN(c2ccc(Nc3ncc(F)c(NC4CCN(CCO)CC4)n3)cc2C(F)(F)F)CC1 [III-7, 5-Fluoro-N4-[1-(2-hydroxyethyl)piperidin-4-yl]-N2-[4-(4-methylpiperazino)-3-trifluoromethyl]phenyl-2,4-pyrimidinediamine]
	0.0031	0.242	CN1C(C)(C)CC(Nc2nc(Nc3ccc(-c4cnn(C)c4)c(Cl)c3)ncc2F)CC1(C)C [Compound I-157]
	0.329	0.539	CN1C(C)(C)CC(Nc2nc(Nc3ccc(N4CCC(F)(F)CC4)c(C(F)(F)F)c3)ncc2F)CC1(C)C [Compound I-245]
	0.0341	0.248	CN1C(C)(C)CC(Nc2nc(Nc3ccc(N4CCN(S(C)(=O)=O)CC4)c(C(F)(F)F)c3)ncc2F)CC1(C)C [Compound I-244]
	0.123	0.252	CN1C(C)(C)CC(Nc2nc(Nc3cc(C(F)(F)F)cc(C(F)(F)F)c3)ncc2F)CC1(C)C [Compound I-146]
	0.0326	0.202	Cc1ccc(Nc2ncc(F)c(NC3CC(C)(C)N(C)C(C)(C)C3)n2)cc1Br [Compound I-160]
	0.021	0.177	CN1C(C)(C)CC(Nc2nc(Nc3ccc(C#N)c(Cl)c3)ncc2F)CC1(C)C [Compound I-22]
	0.0101	0.72	CCN1C(=O)C(C)(C)Oc2cc(Nc3ncc(OC)c(NC4CC(C)(C)N(C)C(C)(C)C4)n3)ccc21 [II-130]
	0.086	3.44	CN1C(C)(C)CC(Nc2nc(Nc3ccc(S(N)(=O)=O)cc3)ncc2F)CC1(C)C [Compound I-9]
	0.0266	0.377	CN1C(C)(C)CC(Nc2nc(Nc3ccc(N4CCN(S(=O)(=O)C5CC5)CC4)c(C(F)(F)F)c3)ncc2F)CC1(C)C [Compound I-173]
	0.255	1.56	N#Cc1cccc(Nc2ncc(F)c(NC3CCN(CCO)CC3)n2)c1 [III-6, N2-(3-Cyano)phenyl-5-fluoro-N4-[1-(2-hydroxyethyl)piperidin-4-yl]-2,4-pyrimidinediamine]
	0.0117	0.443	CN1CCN(c2ccc(Nc3ncc(C#N)c(NC4CC(C)(C)N(C)C(C)(C)C4)n3)cc2C(F)(F)F)CC1 [Compound I-94]
	0.0344	0.494	CN1C(C)(C)CC(Nc2nc(Nc3cccc(-c4cnco4)c3)ncc2F)CC1(C)C [Compound I-100]
	0.005	0.113	COc1ccc(Nc2ncc(F)c(NC3CC(C)(C)N(C)C(C)(C)C3)n2)cc1Cl [Compound I-20]
	0.00141	0.0924	CN1C(C)(C)CC(Nc2nc(Nc3ccc(-c4cccnc4)c(C#N)c3)ncc2F)CC1(C)C [Compound I-186]
	0.0145	0.516	Cc1ccc(Nc2ncc(F)c(NC3CC(C)(C)N(C)C(C)(C)C3)n2)cc1-c1cnn(C)c1 [Compound I-190]
	0.0324	1.68	CN1CCC(Nc2nc(Nc3ccc(N4CCN(C)CC4)c(Cl)c3)ncc2F)CC1 [III-4, N2-[3-Chloro-4-(4-methylpiperazino)]phenyl-5-fluoro-N4-(1-methylpiperidin-4-yl)-2,4-pyrimidinediamine]
	0.0038	0.29	CN1C(C)(C)CC(Nc2nc(Nc3ccc(Cl)c(C#N)c3)ncc2F)CC1(C)C [Compound I-163]
	0.0144	0.418	CN1C(C)(C)CC(Nc2nc(Nc3ccc(-c4ccoc4)c(Cl)c3)ncc2F)CC1(C)C [Compound I-155]
